This note sets out measurements from a melting point compilation (Tetko et al.; mined from patent text by program, amines drawn as free bases though some values may be those of a salt).

`CC(CCO)C(c1cc(F)ccc1F)S(=O)(=O)c1ccc(Cl)cc1` (configuration not stated) came in with a melting point of 65 to 67 °C.

Regarding `CSC1NC(=O)N(C2CCCCC2)C(=O)N1C` (configuration not stated), the melting point lay within 135 to 137 °C.

The compound `COC(=O)c1cc(Cl)ccc1-n1cnnc1C` showed a melting point of 86 to 88.5 °C.

The compound `N#CC1=C(C#N)Sc2nc3ccccc3nc2S1` gave a melting point of more than 300 °C.

`CSC1=Nc2ccc(Cl)cc2C(=O)N(C)C1`: the melting point was 124 to 127 °C.

Turning to `Oc1ccc(CN[C@H]2CC[C@@H](C(c3ccccc3)c3ccccc3)OC2)cc1` (relative stereo), the melting point was in the range of 136 to 138 °C.

`COc1ccc(CN(CCN(C)C)c2ccc(C(=O)O)cn2)cc1` showed a melting point of 188 to 190 °C.

`CC(CCCCc1ccc(F)cc1)NCc1c(CO)ccc(O)c1CO` (configuration not stated) returned a melting point of 72 to 77 °C.

The compound `CCOC(=O)c1cn(C)nc1OCc1ccccc1` registered a melting point of 66 to 67 °C.

Take `Nc1sccc1C(=O)c1ccc(F)cc1`: the melting point worked out at 178 °C.

Turning to `Cc1cc(OCc2ccc(-c3ccc(C(F)(F)F)cc3)nc2C)ccc1SCC(=O)O`, the melting point lay in the range of 168 to 169 °C.

For the compound `CC(=O)OC(C)c1ccc(CCOc2ccc(CC3SC(=O)NC3=O)cc2)nc1` (configuration not stated), the melting point fell in the range of 143 to 144 °C.

As for `CCCn1c(COC)nc2c(N)nc3ccc(OCC(=O)N4CCOCC4)cc3c21`, the melting point was in the range of 201 to 204 °C.

In turn, `O=C(N1CCOCC1)C1(c2onc(-c3ccc(O)cc3)c2-c2ccccc2)CC1` yielded a melting point of 195 to 196 °C.

Compound `CNC(=O)C1CCCN1S(=O)(=O)c1ccc(N2CCC3(CC2)OCCO3)cc1` (configuration not stated) gave a melting point of 137 to 139 °C.

In the case of `NCc1ccc(-c2nc(-c3ccc(F)cc3)c(-c3ccncc3)[nH]2)cc1`, the melting point lay in the range of 214 to 215 °C.

`OCC(CO)Oc1ccc(I)cc1` displayed a melting point of 90 °C.

Compound `CCOC(=O)C1=C(N)N=C(OCC)C(C(=O)OCC)C1c1ccc(-c2ccccc2)cc1` (configuration not stated) displayed a melting point of 145 °C.

Turning to `COc1cc(N)c(Cl)cc1C(=O)NCC1CNCCO1` (configuration not stated), the melting point lay in the range of 161 to 162 °C.

On to `CN(c1ccc(Cl)cc1)S(=O)(=O)c1cccc(C(=O)Nc2ccc(Cl)cc2C#N)c1`, for which the melting point lay in the range of 157 to 158 °C.

For the compound `O=C(O)C1CC(=O)N(Cc2ccccc2)C1c1ccccc1` (configuration not stated), the melting point lay in the range of 169 to 171 °C.

The compound `OC1CCC(Oc2ccc3[nH]ncc3c2)CC1` (configuration not stated) came in with a melting point of 112 to 118 °C.

In turn, `OC(CCN1CCN(c2ccccc2)CC1)c1ccccc1` (configuration not stated) gave a melting point of 85 to 87 °C.

In turn, `Fc1ccccc1Cn1nnc2c(NC3CC3)nccc21` showed a melting point of 245 to 247 °C.

As to `COc1ccc(OC)c(COc2ccc3nc[nH]c(=O)c3c2)c1`, the melting point lay within 155 to 158 °C.

As for `N#Cc1ccc(F)cc1-c1cc(-c2cnc3nc(C(F)(F)F)cnn23)ccc1F`, the melting point fell in the range of 200 to 201 °C.

`Clc1cc(-c2ccccn2)ccn1` gave a melting point of 80 to 81 °C.

Take `CC(=O)c1ccc(S(=O)(=O)NCCN(C)C)cc1`: the melting point lay within 87 to 89 °C.

Regarding `O=C1O[C@H](C(O)O)CCN1Cc1ccccc1`, the melting point turned out to be 120 °C.

On to `Cc1cc(C)cc(P(=O)(O)O)c1`, for which the melting point lay within 197 to 199 °C.

With `CC(COc1ccc(O)c(C(N)=O)c1)NCc1ccccc1` (configuration not stated), the melting point lay within 102 to 104 °C.

Consider `O=Cc1cccc(-c2ccco2)n1`, for which the melting point was in the range of 46 to 48 °C.

For the compound `COc1c2c(cc3c1OCO3)C(=O)CN(C)C2`, the melting point lay in the range of 116 to 119 °C.

With `Nc1nc(S(N)=O)c2[nH]cnc2n1` (configuration not stated), the melting point is more than 250 °C.

The compound `O=C(O)CNC(=O)Nc1ccc(Cl)cc1` registered a melting point of 218 °C.

For the compound `Fc1ccc2c(c1)CC(CN1CCC(c3noc4cc(F)ccc34)CC1)O2` (racemic), the melting point lay in the range of 129 to 130 °C.

Take `Cc1c(C#N)c(N)n(-c2c(Br)cc(C(F)(F)F)cc2Br)c1C`: the melting point fell in the range of 158 to 161 °C.

Compound `O=C(NCCO)c1cc(-c2cccc3nn(Cc4cccc(C(F)(F)F)c4)cc23)ccn1` had a melting point of 131 to 132 °C.

`CNC(=O)CC1=CC2(CCCC2)c2ccc(Cl)cc21` registered a melting point of 190 °C.

Take `COc1ccccc1-c1noc2ccc([N+](=O)[O-])cc12`: the melting point was in the range of 170 to 171 °C.

With `O=C1C(=O)c2ccccc2C2=C1SCC1(CCN(c3cnccn3)CC1)O2`, the melting point was 255 to 256 °C.

In the case of `CCc1cn2nc(C)ccc2n1`, the melting point lay in the range of 53 to 55 °C.

`CC1=NCCSC1=NOC(=O)N(C)C` yielded a melting point of 64 to 65 °C.

With `O=C1NCC2(CCN(Cc3ccccc3)CC2)O1`, the melting point fell in the range of 159 to 161 °C.

Consider `CN1CCC(Nc2cccc(NC(=O)OC(C)(C)C)c2)CC1`, for which the melting point lay within 124 to 125 °C.

In the case of `COc1ccc(CC(SC(C)=O)C(N)=O)cc1C(=O)NCc1ccc(C(F)(F)F)cc1` (configuration not stated), the melting point is 159 to 161 °C.

Compound `COC(=O)c1ccc(NC(=O)/C=C/c2c(C)noc2-c2ccccc2)cc1` returned a melting point of 174 to 175 °C.

Take `CCOC(=O)c1c(C(F)(F)F)nc2c(C(F)(F)F)cccc2c1O`: the melting point was 68 °C.

As to `COc1c(-c2ccccc2)csc1-c1cnn2c(O)ccnc12`, the melting point lay in the range of 234 to 236 °C.

`COc1c2c(c(OC)c(OC)c1OC)CCC(CCOc1cccnc1)CC2` gave a melting point of 111 to 113 °C.

As to `CC(C)(C)c1cc(-c2cc(C(C)(C)C)cc(-n3nc4ccccc4n3)c2O)c(O)c(-n2nc3ccccc3n2)c1`, the melting point was 234 °C.

With `CCC(=O)c1cc(C(=O)C(=O)c2cccc(OC)c2)cn1CC`, the melting point was found to be 97 °C.

In turn, `Cc1[nH]c2ccc(F)cc2c1CCC(=O)N1CCN(c2ccccc2)CC1` showed a melting point of 170 to 172 °C.

As for `O=C(O)Cc1cc(Cc2nc3c(F)c(F)cc(F)c3s2)cc(C(=O)O)c1`, the melting point lay in the range of 203 to 205 °C.

Compound `CCOC(=O)C1CCc2c(c3ccccc3n2C(=O)c2ccc(C)cc2)C1` (configuration not stated) yielded a melting point of 70 to 72 °C.

As to `O=Cc1ccccc1-c1ccc(CBr)cc1`, the melting point lay within 63 to 66 °C.

`C[C@@H](n1cccn1)[C@](O)(Cn1ccnc1)c1ccc(F)cc1F` registered a melting point of 142 to 143 °C.

In turn, `Oc1ccc(-c2cnc3cnc(-c4ccccc4O)nc3c2)cc1` showed a melting point of more than 268 °C.

The compound `Cc1ccc(O)c(I)c1` showed a melting point of 34.5 to 35.5 °C.

Regarding `Cc1cn(C2CC(O[Si](C)(C)C(C)(C)C)C(CO)O2)c(=O)[nH]c1=O` (configuration not stated), the melting point was in the range of 93 to 95 °C.

Turning to `CCOc1ccc(-n2nc(Sc3ccc(Cl)cc3)c(C)c(C#N)c2=O)cc1`, the melting point lay within 138 to 145 °C.

Turning to `CSCCCC(=O)C(=C1NCCCS1)[N+](=O)[O-]`, the melting point is 49 to 49.5 °C.

Regarding `COc1ccc(-c2nc(C)cc(Cl)n2)cc1`, the melting point lay within 80 to 81 °C.

As for `O=C(O)C[C@H]1CCCCN1C(=O)C=Cc1c(-c2ccccc2)nn2ccccc12`, the melting point is 165 to 166 °C.

As to `O=C(CCl)c1ccc(Cl)c(S(=O)(=O)NC2CCCCC2)c1`, the melting point was 117 °C.

As for `Cc1nc2c(N)nc3ccc(OCc4ccccc4)cc3c2n1CCCCCS(C)(=O)=O`, the melting point lay in the range of 215 to 217 °C.

`COc1ccc(S(=O)(=O)N2c3ccc(Br)cc3-c3ccccc3C2C)cc1` (configuration not stated) gave a melting point of 192 to 194 °C.

The compound `COc1cccc(COc2cc3c(cc2-c2cc(C=CC(=O)O)ccc2O)C(C)(C)CCC3(C)C)c1` came in with a melting point of 113 to 115 °C.

Regarding `O=CN1CCC(c2nn(-c3ccc(C(F)(F)F)cc3)c3cc(F)ccc23)CC1`, the melting point was in the range of 142 to 144 °C.

In turn, `CSc1nc(O)cc(OC(F)F)n1` returned a melting point of 236 to 237 °C.

On to `Cc1cc2c(c(C(C)(C)C)c1)OC(=O)C2O` (configuration not stated), for which the melting point fell in the range of 152 to 160 °C.

Take `Fc1ccc(-c2ccn(CC3CCNCC3)c2-c2ccncc2)cc1`: the melting point fell in the range of 174 to 176 °C.

For `c1ccc(C(c2ccccc2)(c2ccccc2)N2CCc3sccc3C2)cc1`, the melting point is 95 °C.

Compound `O=C1Nc2ccc(C(O)c3ccc(Cl)cc3)cc2C(c2cccc(Cl)c2)N1` (configuration not stated) displayed a melting point of 231 °C.

Turning to `COc1ccc(S(=O)(=O)N2CCc3cccc(-c4ccccc4)c32)cc1`, the melting point was in the range of 166 to 168 °C.

In the case of `COC(=O)c1ncn(C(c2ccccc2)c2ccccc2)c1C(=O)OC`, the melting point is 93 °C.

As to `CN(C)S(=O)(=O)n1cnc(-c2ccc(Cl)cc2Cl)c1`, the melting point fell in the range of 169 to 171 °C.

`O=C(O)CCc1cc2cc(Cl)ccc2n1S(=O)(=O)c1ccc(-c2ccccc2)cc1`: the melting point fell in the range of 160 to 162 °C.

On to `CC(C)(CCn1cnnc1)NCC(O)c1ccc(OCc2ccccc2)c(CO)c1` (configuration not stated), for which the melting point lay in the range of 139 to 141 °C.

As for `O=[N+]([O-])c1ccc(NN=Cc2ncc[nH]2)nc1`, the melting point lay in the range of 268 to 269 °C.

As for `c1csc(C2=NCC3COCCN3c3cc4c(cc32)OCCO4)c1` (configuration not stated), the melting point lay within 192 to 194 °C.

`COC(=O)[C@H]1CC[C@@H](NC(=O)c2cc(-c3ccc(C#N)cc3)nn(C)c2=O)CC1` showed a melting point of 190 to 192 °C.

As to `Oc1ccc(-c2nc3cc(O)cc(-c4ccco4)c3o2)cc1`, the melting point fell in the range of 120 to 121 °C.

The compound `O=C(NC(=O)c1ccccc1Cl)Nc1cc(C(F)(F)F)c(Cl)cc1Br` had a melting point of 185 °C.

With `Nc1cccc2c1CC(O)CC2` (configuration not stated), the melting point lay in the range of 88 to 91 °C.

`CCOC(=O)/C=C/c1sc(SC)c2c1CCCC2=O` had a melting point of 104 to 105 °C.

Turning to `COCCNC(=O)c1ccc(C(=O)N2CCN(c3ncccc3NCC(C)C)CC2)nc1`, the melting point lay within 123 to 125 °C.
